Molecules are shown by their SMILES.

Broadly, the AC50 is the concentration giving half of the maximal activity seen.

For the assay, the target named is T1, human PAH with the R408W mutation (Homo sapiens, UniProt P00439, R408W).
T1 construct: expressed in transfected cells
T1 sequence (P00439 1-452 R408W): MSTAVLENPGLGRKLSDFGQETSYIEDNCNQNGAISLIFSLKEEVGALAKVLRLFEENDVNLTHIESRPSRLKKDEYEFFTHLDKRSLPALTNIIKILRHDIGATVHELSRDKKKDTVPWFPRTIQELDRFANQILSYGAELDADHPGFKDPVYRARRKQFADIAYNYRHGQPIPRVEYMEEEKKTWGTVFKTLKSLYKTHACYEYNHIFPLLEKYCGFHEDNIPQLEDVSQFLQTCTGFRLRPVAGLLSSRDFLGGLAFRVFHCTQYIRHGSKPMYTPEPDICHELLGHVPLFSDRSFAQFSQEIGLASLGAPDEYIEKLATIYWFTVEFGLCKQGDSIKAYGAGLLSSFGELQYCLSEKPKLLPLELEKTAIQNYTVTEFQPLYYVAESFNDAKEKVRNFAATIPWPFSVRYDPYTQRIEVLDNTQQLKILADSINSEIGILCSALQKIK
In words: Cell Based Phenylalanine Flux Assay.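 Further: after compound treatment, cells received sepiapterin plus isotope-labelled Phenylalanine for 4 hours, then labelled Tyrosine in the medium was quantified, 10-point 2-fold dilution series run in duplicate.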 The conditions noted are these: A375 cells expressing human R408W PAH; 24 hrs compound incubation; 13C-Tyrosine by LC-MS; average where tested multiple times; read-out: AC50.

For `CC(C)(O)c1nc(Cl)c(C(=O)N2CCc3[nH]cnc3[C@@H]2c2cc3c(F)cccn3n2)o1` [Example 757, (R)-(4-chloro-2-(2-hydroxypropan-2-yl)oxazol-5-yl)(4-(4-fluoropyrazolo[1,5-a]pyridin-2-yl)-6,7-dihydro-1H-imidazo[4,5-c]pyridin-5(4H)-yl)methanone], the AC50 was 1 to 5 µM.

Consider `O=C(c1ocnc1C(F)F)N1CCc2[nH]cnc2[C@H]1c1cc2c(F)cccn2n1` [Example 758, (S)-(4-(difluoromethyl)oxazol-5-yl)(4-(4-fluoropyrazolo[1,5-a]pyridin-2-yl)-6,7-dihydro-1H-imidazo[4,5-c]pyridin-5(4H)-yl)methanone], for which the AC50 was under 0.5 µM. As for `O=C(c1ocnc1C(F)F)N1CCc2[nH]cnc2[C@@H]1c1cc2c(F)cccn2n1` [Example 759, (R)-(4-(difluoromethyl)oxazol-5-yl)(4-(4-fluoropyrazolo[1,5-a]pyridin-2-yl)-6,7-dihydro-1H-imidazo[4,5-c]pyridin-5(4H)-yl)methanone], the figure is 1 to 5 µM.

As to `O=C(c1cnco1)N1CCc2[nH]cnc2[C@H]1c1cc2c(F)cccn2n1` [Example 760, (S)-(4-(4-fluoropyrazolo[1,5-a]pyridin-2-yl)-6,7-dihydro-1H-imidazo[4,5-c]pyridin-5(4H)-yl)(oxazol-5-yl)methanone], the AC50 lay within 1 to 5 µM. On to `O=C(c1cnco1)N1CCc2[nH]cnc2[C@@H]1c1cc2c(F)cccn2n1` [Example 761, (R)-(4-(4-fluoropyrazolo[1,5-a]pyridin-2-yl)-6,7-dihydro-1H-imidazo[4,5-c]pyridin-5(4H)-yl)(oxazol-5-yl)methanone], for which the AC50 is 1 to 5 µM. Next, `Cn1nc(Cl)nc1C(=O)N1CCc2[nH]cnc2[C@H]1c1cc2c(F)cccn2n1` [Example 762, (S)-(3-chloro-1-methyl-1H-1,2,4-triazol-5-yl)(4-(4-fluoropyrazolo[1,5-a]pyridin-2-yl)-6,7-dihydro-1H-imidazo[4,5-c]pyridin-5(4H)-yl)methanone]: under 0.5 µM; `Cn1nc(Cl)nc1C(=O)N1CCc2[nH]cnc2[C@@H]1c1cc2c(F)cccn2n1` [Example 763, (R)-(3-chloro-1-methyl-1H-1,2,4-triazol-5-yl)(4-(4-fluoropyrazolo[1,5-a]pyridin-2-yl)-6,7-dihydro-1H-imidazo[4,5-c]pyridin-5(4H)-yl)methanone]: 1 to 5 µM. On to `Cn1nc(C(F)F)nc1C(=O)N1CCc2[nH]cnc2[C@H]1c1cc2c(F)cccn2n1` [Example 764, (S)-(3-(difluoromethyl)-1-methyl-1H-1,2,4-triazol-5-yl)(4-(4-fluoropyrazolo[1,5-a]pyridin-2-yl)-6,7-dihydro-1H-imidazo[4,5-c]pyridin-5(4H)-yl)methanone], for which the AC50 was in the range of 0.5 to 1 µM. As for `Cn1nc(C(F)F)nc1C(=O)N1CCc2[nH]cnc2[C@@H]1c1cc2c(F)cccn2n1` [Example 765, (R)-(3-(difluoromethyl)-1-methyl-1H-1,2,4-triazol-5-yl)(4-(4-fluoropyrazolo[1,5-a]pyridin-2-yl)-6,7-dihydro-1H-imidazo[4,5-c]pyridin-5(4H)-yl)methanone], the AC50 is 1 to 5 µM. As to `O=C(c1cnco1)N1CCc2[nH]cnc2[C@H]1c1cc2c(Cl)cccn2n1` [Example 766, (S)-(4-(4-chloropyrazolo[1,5-a]pyridin-2-yl)-6,7-dihydro-1H-imidazo[4,5-c]pyridin-5(4H)-yl)(oxazol-5-yl)methanone], the AC50 is under 0.5 µM. Next, `O=C(c1cnco1)N1CCc2[nH]cnc2[C@@H]1c1cc2c(Cl)cccn2n1` [Example 767, (R)-(4-(4-chloropyrazolo[1,5-a]pyridin-2-yl)-6,7-dihydro-1H-imidazo[4,5-c]pyridin-5(4H)-yl)(oxazol-5-yl)methanone]: over 5 µM; `Cc1cccn2nc([C@@H]3c4nc[nH]c4CCN3C(=O)c3cnco3)cc12` [Example 768, (S)-(4-(4-methylpyrazolo[1,5-a]pyridin-2-yl)-6,7-dihydro-1H-imidazo[4,5-c]pyridin-5(4H)-yl)(oxazol-5-yl)methanone]: under 0.5 µM. On to `Cc1ncoc1C(=O)N1CCc2[nH]cnc2[C@H]1c1cc2c(C)cccn2n1` [Example 770, (S)-(4-methyloxazol-5-yl)(4-(4-methylpyrazolo[1,5-a]pyridin-2-yl)-6,7-dihydro-1H-imidazo[4,5-c]pyridin-5(4H)-yl)methanone], for which the AC50 was under 0.5 µM. As for `Cc1ncoc1C(=O)N1CCc2[nH]cnc2[C@@H]1c1cc2c(C)cccn2n1` [Example 771, (R)-(4-methyloxazol-5-yl)(4-(4-methylpyrazolo[1,5-a]pyridin-2-yl)-6,7-dihydro-1H-imidazo[4,5-c]pyridin-5(4H)-yl)methanone], the figure is 1 to 5 µM; as for `O=C(c1ocnc1C(F)(F)F)N1CCc2[nH]cnc2[C@H]1c1cc2c(F)cccn2n1` [Example 772, (S)-(4-(4-fluoropyrazolo[1,5-a]pyridin-2-yl)-6,7-dihydro-1H-imidazo[4,5-c]pyridin-5(4H)-yl)(4-(trifluoromethyl)oxazol-5-yl)methanone], under 0.5 µM.

On to `O=C(c1ocnc1C(F)(F)F)N1CCc2[nH]cnc2[C@@H]1c1cc2c(F)cccn2n1` [Example 773, (R)-(4-(4-fluoropyrazolo[1,5-a]pyridin-2-yl)-6,7-dihydro-1H-imidazo[4,5-c]pyridin-5(4H)-yl)(4-(trifluoromethyl)oxazol-5-yl)methanone], for which the AC50 is 0.5 to 1 µM.

As to `Cc1ncoc1C(=O)N1CCc2[nH]cnc2[C@H]1c1cc2c(F)cccn2n1` [Example 774, (S)-(4-(4-fluoropyrazolo[1,5-a]pyridin-2-yl)-6,7-dihydro-1H-imidazo[4,5-c]pyridin-5(4H)-yl)(4-methyloxazol-5-yl)methanone], the AC50 is under 0.5 µM. Take `Cc1ncoc1C(=O)N1CCc2[nH]cnc2[C@@H]1c1cc2c(F)cccn2n1` [Example 775, (R)-(4-(4-fluoropyrazolo[1,5-a]pyridin-2-yl)-6,7-dihydro-1H-imidazo[4,5-c]pyridin-5(4H)-yl)(4-methyloxazol-5-yl)methanone]: the AC50 was over 5 µM. On to `O=C(c1ccnn1C(F)F)N1CCc2[nH]cnc2[C@H]1c1cc2c(F)cccn2n1` [Example 776, (S)-(1-(difluoromethyl)-1H-pyrazol-5-yl)(4-(4-fluoropyrazolo[1,5-a]pyridin-2-yl)-6,7-dihydro-1H-imidazo[4,5-c]pyridin-5(4H)-yl)methanone], for which the AC50 was under 0.5 µM. Next, `O=C(c1ccnn1C(F)F)N1CCc2[nH]cnc2[C@@H]1c1cc2c(F)cccn2n1` [Example 777, (R)-(1-(difluoromethyl)-1H-pyrazol-5-yl)(4-(4-fluoropyrazolo[1,5-a]pyridin-2-yl)-6,7-dihydro-1H-imidazo[4,5-c]pyridin-5(4H)-yl)methanone]: over 5 µM; `COc1cccn2nc([C@@H]3c4nc[nH]c4CCN3C(=O)c3nnc(-c4ccccn4)o3)cc12` [Example 779, (S)-(4-(4-methoxypyrazolo[1,5-a]pyridin-2-yl)-6,7-dihydro-1H-imidazo[4,5-c]pyridin-5(4H)-yl)(5-(pyridin-2-yl)-1,3,4-oxadiazol-2-yl)methanone]: 0.5 to 1 µM. Take `Cn1nc(C(F)F)nc1C(=O)N1CCc2[nH]cnc2[C@H]1c1cc2c(Cl)cccn2n1` [Example 780, (S)-(4-(4-chloropyrazolo[1,5-a]pyridin-2-yl)-6,7-dihydro-1H-imidazo[4,5-c]pyridin-5(4H)-yl)(3-(difluoromethyl)-1-methyl-1H-1,2,4-triazol-5-yl)methanone]: the AC50 is under 0.5 µM.

For the origin of these results see patent US20230365592A1 (Agios Pharmaceuticals, Inc., priority 2022, published 2023).
